The values below come from US8546410B2, “Heteroaryl-fused macrocyclic pyrimidine derivatives” (AbbVie Inc., priority 2008, dated 2013).

Molecules are shown by their SMILES. pKi: −log10 of the molar value.

For assay [1], the target named is T1, histamine H4 receptor (Homo sapiens, UniProt Q9H3N8).
T1 construct: expressed in transfected cells
The assay can be described thus: In vitro histamine H4 potency in FLIPR (Ca2+ flux, Fluo-4, HEK-293 cells coexpressing Gαqi5). The note with it: Kb values for antagonists and inverse agonists, EC50 values for partial agonists. The assay is classed as cell-based. From the text:
There are many methods available to show the effectiveness of compounds as histamine H4 receptor ligands. Histamine H4 receptors from mammalian species have been cloned. Methods to clone, express, and assess the potency and functional activity of such cloned genes are well known to those skilled in the art of molecular biology. Examples of methods of cloning and expressing histamine H4 receptors, and of assessing the potency and functional activity are described in Nguyen, et al. Molecular Pharmacology (2001) vol. 59 pp. 427-433; Zhu, et al. Molecular Pharmacology (2001) vol. 59 pp. 434-441; Coge, et al., Biochemical and Biophysical Research Communications (2001) vol. 284, pp. 301-309; Liu, et al. Molecular Pharmacology (2001) vol. 59 pp. 420-426; Liu, et al. Journal of Pharmacology and Experimental Therapeutics (2001) v. 299, pp. 121-130; and Thurmond, et al. Journal of Pharmacology and Experimental Therapeutics (2004) v. 309, pp. 404-413. In the present case, to determine the potency and effectiveness of representative compounds of this invention as histamine-H4 receptor ligands (H4 receptor ligands), the following tests were conducted according to previously described methods (see Esbenshade, et al., Biochemical Pharmacology (2004), vol. 68, pp. 933-945, and in Krueger, et al., Journal of Pharmacology and Experimental Therapeutics (2005) v. 314, pp. 271-281): histamine H4 receptors were cloned and stably expressed in HEK-293 (human embryonic kidney) cells coexpressing a Gαqi5. Before testing, cells are loaded with a Ca^+2 sensitive fluorescent dye, in this case Fluo-4. In the case of partial agonist or agonist ligands, addition of compound to the cells leads to the increase in intracellular Ca^+2 which is detected by FLIPR (Fluorescence Imaging Plate Reader; Molecular Devices, Sunnyvale, Calif.) technology. In a similar manner, compounds that are antagonists or inverse agonists, block the increase in fluorescence induced by the full histamine H4 agonist histamine, and partial agonists reduce the amount of fluorescence induced by the full histamine H4 agonist histamine. The fluorescence intensities measured before addition of the test compound are subtracted from the fluorescence intensities at later time points. Peak response values determined at each concentration of ligand are expressed as a percentage of the response obtained with the full agonist histamine. Concentration versus response data are analyzed to obtain compound potency as Kb values for antagonists and inverse agonists and as EC50 values for partial agonists.
For orientation: A change in cytosolic calcium serves as a functional read-out for many receptors and channels.

For assay [2], the target named is T1, histamine H4 receptor. The assay can be described thus: 3H-histamine competition binding assay, membranes of transfected HEK-293 cells. Particulars: displacement of [3H]-histamine, 25° C., 1 hour; Ki by Cheng-Prusoff equation; read-out: Potency. The method, then:
The potency of compounds of the invention in displacing ^3H-histamine in competition binding assays is assessed by methods described in Esbenshade, et al., Biochemical Pharmacology (2004), vol. 68, pp. 933-945. In this assay, membranes were prepared from HEK-293 cells transiently transfected with the pCINeo expression vector harboring the histamine H4 receptor by homogenization of the cells on ice in TE buffer (50 mM Tris-HCl buffer, pH 7.4, containing 5 mM EDTA), 1 mM benzamidine, 2 μg/ml aprotinin, 1 μg/ml leupeptin, and 1 μg/ml pepstatin. The homogenate was centrifuged at 40,000 g for 20 minutes at 4° C. This step was repeated, and the resulting pellet was resuspended in TE buffer. Aliquots were frozen at −70° C. until needed. On the day of assay, membranes were thawed and diluted with TE buffer. Competition radioligand binding assays were performed with increasing concentrations of test compound in the presence of [^3H]-histamine incubated at 25° C. for 1 hour in a total volume of 0.5 ml of 50 mM Tris, 5 mM EDTA, pH 7.4. All binding reactions were terminated by filtration under vacuum onto polyethylenimine (0.3%) presoaked Unifilters (PerkinElmer Life Sciences) or Whatman GF/B filters (Whatman, Clifton, N.J.) followed by three brief washes with 4 ml of ice-cold TE buffer. Bound radiolabel was determined by liquid scintillation counting. For all of the radioligand competition binding assays, IC50 values and Hill slopes were determined by Hill transformation of the data and Ki values were determined by the Cheng-Prusoff equation. The following table of representative histamine H4 receptor ligands is provided, along with potency values: […]
Background: Loss of bound radioactivity is the signal in a displacement assay; it reports binding, not function.

T1 sequence (Q9H3N8 whole entry, species assumed): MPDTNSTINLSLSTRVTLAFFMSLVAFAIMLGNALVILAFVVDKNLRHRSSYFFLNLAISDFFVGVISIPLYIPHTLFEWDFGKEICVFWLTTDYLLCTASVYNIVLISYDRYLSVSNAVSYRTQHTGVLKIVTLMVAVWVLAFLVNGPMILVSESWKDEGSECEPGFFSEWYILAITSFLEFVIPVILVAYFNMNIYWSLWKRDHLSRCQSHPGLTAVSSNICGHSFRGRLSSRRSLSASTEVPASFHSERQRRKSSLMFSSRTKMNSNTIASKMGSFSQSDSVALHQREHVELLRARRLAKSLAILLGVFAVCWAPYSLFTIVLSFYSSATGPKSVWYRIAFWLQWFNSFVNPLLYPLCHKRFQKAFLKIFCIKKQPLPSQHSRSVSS

For `Nc1nc2c(c(N3CC4CCCNC4C3)n1)CCCc1sccc1-2` (stereo not shown) [Example 1, 4-octahydro-6H-pyrrolo[3,4-b]pyridin-6-yl-6,7-dihydro-5H-thieno[2′,3′:6,7]cyclohepta[1,2-d]pyrimidin-2-amine], the “Potency” value on histamine H4 receptor [1] is 17 nM. For the same molecule, the pKi at histamine H4 receptor [2] was 8.22. The corresponding values for `Nc1nc2c(c(N3CC[C@@H](N)C3)n1)CCCc1sccc1-2` [Example 2, 4-[(3R)-3-aminopyrrolidin-1-yl]-6,7-dihydro-5H-thieno[2′,3′:6,7]cyclohepta[1,2-d]pyrimidin-2-amine] are 6.6 nM and 8.00. As to `CN[C@@H]1CCN(c2nc(N)nc3c2CCCc2sccc2-3)C1` [Example 3, 4-[(3R)-3-(methylamino)pyrrolidin-1-yl]-6,7-dihydro-5H-thieno[2′,3′:6,7]cyclohepta[1,2-d]pyrimidin-2-amine], the “Potency” value on histamine H4 receptor [1] is recorded as 3.7 nM. Besides, at histamine H4 receptor [2], the pKi is 8.06.

As to `Nc1nc2c(c(N3CC4CCCNC4C3)n1)CCCc1occc1-2` (stereo not shown) [Example 4, 4-octahydro-6H-pyrrolo[3,4-b]pyridin-6-yl-6,7-dihydro-5H-furo[2′,3′:6,7]cyclohepta[1,2-d]pyrimidin-2-amine], at histamine H4 receptor [1], the “Potency” value was 14 nM. The pKi at histamine H4 receptor [2] was 7.92. Turning to `Cc1cc2c(o1)CCCc1c-2nc(N)nc1N1CC2CCCNC2C1` (stereo not shown) [Example 5, 9-methyl-4-octahydro-6H-pyrrolo[3,4-b]pyridin-6-yl-6,7-dihydro-5H-furo[2′,3′:6,7]cyclohepta[1,2-d]pyrimidin-2-amine], the “Potency” value on histamine H4 receptor [1] is on record as 34 nM. On to `Cc1cc2c(o1)CCCc1c-2nc(N)nc1N1CC[C@@H](N)C1` [Example 6, 4-[(3R)-3-aminopyrrolidin-1-yl]-9-methyl-6,7-dihydro-5H-furo[2′,3′:6,7]cyclohepta[1,2-d]pyrimidin-2-amine], for which the “Potency” value at histamine H4 receptor [1] is on record as 252 nM. With `Nc1nc2c(c(N3CC4CCCNC4C3)n1)CCCc1ccoc1-2` (stereo not shown) [Example 7, 4-octahydro-6H-pyrrolo[3,4-b]pyridin-6-yl-6,7-dihydro-5H-furo[3′,2′:6,7]cyclohepta[1,2-d]pyrimidin-2-amine], the “Potency” value at histamine H4 receptor [1] is reported as 20 nM. Also, the pKi at histamine H4 receptor [2] is 6.78. Regarding `CN1CCN(c2nc(N)nc3c2CCCc2c-3cnn2C)CC1` [Example 8, 8-methyl-4-(4-methylpiperazin-1-yl)-5,6,7,8-tetrahydropyrazolo[3′,4′:6,7]cyclohepta[1,2-d]pyrimidin-2-amine], the “Potency” value at histamine H4 receptor [1] was found to be 107 nM. As for `Cn1ncc2c1CCCc1c-2nc(N)nc1N1CC[C@@H](N)C1` [Example 9, 4-[(3R)-3-aminopyrrolidin-1-yl]-8-methyl-5,6,7,8-tetrahydropyrazolo[3′,4′:6,7]cyclohepta[1,2-d]pyrimidin-2-amine], the “Potency” value on histamine H4 receptor [1] came to 105 nM. The pKi on histamine H4 receptor [2] is 6.37.

As to `CC(C)(C)n1ncc2c1CCCc1c-2nc(N)nc1N1CC2CCCNC2C1` (stereo not shown) [Example 10, 8-tert-butyl-4-octahydro-6H-pyrrolo[3,4-b]pyridin-6-yl-5,6,7,8-tetrahydropyrazolo[3′,4′:6,7]cyclohepta[1,2-d]pyrimidin-2-amine], on histamine H4 receptor [1], the “Potency” value is given as 187 nM. Further, the pKi on histamine H4 receptor [2] was 7.36. For the molecule `CN[C@@H]1CCN(c2nc(N)nc3c2CCCc2c-3cnn2-c2ccccc2)C1` [Example 11, 4-[(3R)-3-(methylamino)pyrrolidin-1-yl]-8-phenyl-5,6,7,8-tetrahydropyrazolo[3′,4′:6,7]cyclohepta[1,2-d]pyrimidin-2-amine], the “Potency” value on histamine H4 receptor [1] stood at 46 nM. Same read-out and setting: with `Nc1nc2c(c(N3CC4CCCNC4C3)n1)CCCc1sc(Br)cc1-2` (stereo not shown) [Example 12, 9-bromo-4-octahydro-6H-pyrrolo[3,4-b]pyridin-6-yl-6,7-dihydro-5H-thieno[2′,3′:6,7]cyclohepta[1,2-d]pyrimidin-2-amine] the figure was 35 nM; with `Nc1nc2c(c(N3CC4CCCNC4C3)n1)CCCc1sc(-c3ccccc3)cc1-2` (stereo not shown) [Example 13, 4-octahydro-6H-pyrrolo[3,4-b]pyridin-6-yl-9-phenyl-6,7-dihydro-5H-thieno[2′,3′:6,7]cyclohepta[1,2-d]pyrimidin-2-amine], 700 nM; with `CN1CCN(c2nc(N)nc3c2CCCc2cccnc2-3)CC1` [Example 14, 4-(4-methylpiperazin-1-yl)-6,7-dihydro-5H-pyrido[3′,2′:6,7]cyclohepta[1,2-d]pyrimidin-2-amine], 37 nM. `Nc1nc2c(c(N3CC[C@@H](N)C3)n1)CCCc1cccnc1-2` [Example 15, 4-[(3R)-3-aminopyrrolidin-1-yl]-6,7-dihydro-5H-pyrido[3′,2′:6,7]cyclohepta[1,2-d]pyrimidin-2-amine]: on histamine H4 receptor [1], the “Potency” value turned out to be 35 nM. As to `Cc1noc2c1-c1nc(N)nc(N3CCN(C)CC3)c1CCC2` [Example 16, 10-methyl-4-(4-methylpiperazin-1-yl)-6,7-dihydro-5H-isoxazolo[5′,4′:6,7]cyclohepta[1,2-d]pyrimidin-2-amine], the “Potency” value on histamine H4 receptor [1] stood at 2350 nM. Take `Cc1noc2c1-c1nc(N)nc(N3CC[C@@H](N)C3)c1CCC2` [Example 17, 4-[(3R)-3-aminopyrrolidin-1-yl]-10-methyl-6,7-dihydro-5H-isoxazolo[5′,4′:6,7]cyclohepta[1,2-d]pyrimidin-2-amine]: at histamine H4 receptor [1], the “Potency” value was 1860 nM. For `Nc1nc2c(c(N3C[C@H]4CCCN[C@H]4C3)n1)CCCc1sccc1-2` [Example 18, 4-[(4aR,7aR)-octahydro-6H-pyrrolo [3,4-b]pyridin-6-yl]-6,7-dihydro-5H-thieno[2′,3′:6,7]cyclohepta[1,2-d]pyrimidin-2-amine], on histamine H4 receptor [1], the “Potency” value came to 6 nM. Besides, the pKi on histamine H4 receptor [2] was 8.74.

In the case of `CN1CCN(c2nc(N)nc3c2CCc2nn(-c4ccccc4)nc2-3)CC1` [Example 20, 6-(4-methylpiperazin-1-yl)-2-phenyl-4,5-dihydro-2H-[1,2,3]triazolo[4,5-h]quinazolin-8-amine], at histamine H4 receptor [2], the pKi is 5.89. As for `CN1CCN(c2nc(N)nc3c2CCc2sccc2-3)CC1` [Example 21, 4-(4-methylpiperazin-1-yl)-5,6-dihydrothieno[2,3-h]quinazolin-2-amine], the pKi on histamine H4 receptor [2] is 7.10.
